21 compounds from patent US10428083B2, “Heterocyclylmethyl-thienouracile as antagonists of the adenosine-A2B-receptor” (BAYER PHARMA AKTIENGESELLSCHAFT, priority 2015, dated 2019) can be followed below.

The IC50 is the concentration that inhibits the measured activity by half.

The assay concerns the target human adenosine A2b receptor (Homo sapiens (Human), UniProt P29275). In words: Cellular in vitro reporter gene test for A2b receptor activity (CHO-K1, CRE-luciferase, NECA stimulation). The format is cell-based. The settings on record: recombinant CHO-K1 cell line, CRE-luciferase reporter, antagonism of EC50 concentration of NECA; in some cases means of several determinations, rounded to two significant figures; read-out: A2b receptor IC50. Put shortly: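 CHO-K1 cells with CRE-driven luciferase; antagonists co-incubated with NECA at its EC50, determined in a pre-experiment on each test day. Luciferase read by luminescence 3 h after NECA addition.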
For orientation: Reporter assays use an easily measured gene product as a stand-in for the process of interest.

Sequence of human adenosine A2b receptor (P29275 whole entry): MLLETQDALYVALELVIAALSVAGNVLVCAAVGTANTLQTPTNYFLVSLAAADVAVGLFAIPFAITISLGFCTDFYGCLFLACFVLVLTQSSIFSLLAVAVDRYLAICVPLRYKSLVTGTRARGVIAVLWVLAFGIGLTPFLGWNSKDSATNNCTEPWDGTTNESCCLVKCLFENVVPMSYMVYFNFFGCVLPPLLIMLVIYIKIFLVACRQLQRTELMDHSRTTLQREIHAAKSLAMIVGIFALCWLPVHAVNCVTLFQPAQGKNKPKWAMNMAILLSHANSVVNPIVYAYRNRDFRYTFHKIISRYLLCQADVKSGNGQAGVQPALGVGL

In the case of `Cc1c(Cn2cc[nH]c2=O)sc2c1c(=O)n(CC(F)(F)F)c(=O)n2CC1CCCO1` (racemic) [Example 341, 5-Methyl-6-[(2-oxo-2,3-dihydro-1H-imidazol-1-yl)methyl]-1-(tetrahydrofuran-2-ylmethyl)-3-(2,2,2-trifluoroethyl)thieno[2,3-d]pyrimidine-2,4(1H,3H)-dione], the IC50 was determined as 12 nM.

`COCCn1c(=O)n(CCC(F)(F)F)c(=O)c2c(C)c(CN3CCNC3=O)sc21` [Example 98, 1-(2-Methoxyethyl)-5-methyl-6-[(2-oxoimidazolidin-1-yl)methyl]-3-(3,3,3-trifluoropropyl)thieno[2,3-d]pyrimidine-2,4(1H,3H)-dione]: the concentration for half-maximal inhibition (IC50) stood at 130 nM.

Take `CCOCCn1c(=O)n(CC(C)C)c(=O)c2c(C)c(CN3CCNC(=O)C3=O)sc21` [Example 271, 6-[(2,3-Dioxopiperazin-1-yl)methyl]-1-(2-ethoxyethyl)-3-isobutyl-5-methylthieno[2,3-d]pyrimidine-2,4(1H,3H)-dione]: the IC50 amounted to 47 nM.

For `CCn1c(=O)c2c(C)c(CN3CCNC3=NC(=O)OC)sc2n(CCOC)c1=O` (single isomer, unassigned) [Example 118, Methyl [1-{[3-ethyl-1-(2-methoxyethyl)-5-methyl-2,4-dioxo-1,2,3,4-tetrahydrothieno[2,3-d]pyrimidin-6-yl]methyl}imidazolidin-2-ylidene]carbamate], the IC50 was 3.1 nM.

As for `Cc1c(CN2CCNC2=NC#N)sc2c1c(=O)n(CC(F)(F)F)c(=O)n2CC1CCCO1` (single isomer, unassigned) [Example 361, [1-{[5-Methyl-2,4-dioxo-1-(tetrahydrofuran-2-ylmethyl)-3-(2,2,2-trifluoroethyl)-1,2,3,4-tetrahydrothieno[2,3-d]pyrimidin-6-yl]methyl}imidazolidin-2-ylidene]cyanamide], the IC50 came out at 13 nM.

With `COC(C)(C)Cn1c(=O)c2c(C)c(CN3CCNC3=O)sc2n(CCC(F)(F)F)c1=O` [Example 236, 3-(2-Methoxy-2-methylpropyl)-5-methyl-6-[(2-oxoimidazolidin-1-yl)methyl]-1-(3,3,3-trifluoropropyl)thieno[2,3-d]pyrimidine-2,4(1H,3H)-dione], the IC50 stood at 6 nM.

As to `COCCn1c(=O)n(C(C)C)c(=O)c2c(C)c(Cn3nc[nH]c3=O)sc21` [Example 254, 3-Isopropyl-1-(2-methoxyethyl)-5-methyl-6-[(5-oxo-4,5-dihydro-1H-1,2,4-triazol-1-yl)methyl]thieno[2,3-d]pyrimidine-2,4(1H,3H)-dione], the half-maximal inhibitory concentration (IC50) was 34 nM.

In the case of `CCOCCn1c(=O)n(CC)c(=O)c2c(C)c(CN3CCNC3=S)sc21` [Example 32, 1-(2-Ethoxyethyl)-3-ethyl-5-methyl-6-[(2-thioxoimidazolidin-1-yl)methyl]thieno[2,3-d]pyrimidine-2,4(1H,3H)-dione], the half-maximal inhibitory concentration (IC50) was 11 nM.

On to `COCCn1c(=O)c2c(C)c(CN3CCNC3=NC(=O)OC)sc2n(CC2CCCO2)c1=O` (racemic) [Example 390, Methyl [1-{[3-(2-methoxyethyl)-5-methyl-2,4-dioxo-1-(tetrahydrofuran-2-ylmethyl)-1,2,3,4-tetrahydrothieno[2,3-d]pyrimidin-6-yl]methyl}imidazolidin-2-ylidene]carbamate], for which the IC50 was determined as 28 nM.

As to `CCn1c(=O)c2c(C)c(CN3CCN(C(C)=O)C3=O)sc2n(CCOC)c1=O` [Example 104, 6-[(3-Acetyl-2-oxoimidazolidin-1-yl)methyl]-3-ethyl-1-(2-methoxyethyl)-5-methylthieno[2,3-d]pyrimidine-2,4(1H,3H)-dione], the half-maximal inhibitory concentration (IC50) came out at 120 nM.

For the compound `CCn1c(=O)c2c(C)c(CN3CCNC3=O)sc2n(CC2CCO2)c1=O` (racemic) [Example 65, 3-Ethyl-5-methyl-1-(oxetan-2-ylmethyl)-6-[(2-oxoimidazolidin-1-yl)methyl]thieno[2,3-d]pyrimidine-2,4(1H,3H)-dione (racemate)], the half-inhibitory concentration (IC50) worked out at 12 nM.

With `COCCn1c(=O)c2c(C)c(Cn3cc[nH]c3=O)sc2n(CC2CCCO2)c1=O` (single isomer, unassigned) [Example 348, 3-(2-Methoxyethyl)-5-methyl-6-[(2-oxo-2,3-dihydro-1H-imidazol-1-yl)methyl]-1-(tetrahydrofuran-2-ylmethyl)thieno[2,3-d]pyrimidine-2,4(1H,3H)-dione], the IC50 came out at 48 nM.

`CCn1c(=O)c2c(C)c(Cn3[nH]ccc3=O)sc2n(CC2CCCO2)c1=O` (racemic) [Example 129, 3-Ethyl-5-methyl-6-[(5-oxo-2,5-dihydro-1H-pyrazol-1-yl)methyl]-1-(tetrahydrofuran-2-ylmethyl)thieno[2,3-d]pyrimidine-2,4(1H,3H)-dione]: the IC50 was found to be 19 nM.

Regarding `Cc1c(Cn2[nH]ccc2=O)sc2c1c(=O)n(C(C)C)c(=O)n2CCC(F)(F)F` [Example 132, 3-Isopropyl-5-methyl-6-[(5-oxo-2,5-dihydro-1H-pyrazol-1-yl)methyl]-1-(3,3,3-trifluoropropyl)thieno[2,3-d]pyrimidine-2,4(1H,3H)-dione], the IC50 was 20 nM.

With `Cc1c(CN2CCNC2=O)sc2c1c(=O)n(C(C)C)c(=O)n2C` [Example 312, 3-Isopropyl-1,5-dimethyl-6-[(2-oxoimidazolidin-1-yl)methyl]thieno[2,3-d]pyrimidine-2,4(1H,3H)-dione], the IC50 amounted to 22 nM.

As for `CCn1c(=O)c2c(C)c(CN3CCNC3=O)sc2n(CCSC(F)(F)F)c1=O` [Example 58, 3-Ethyl-5-methyl-6-[(2-oxoimidazolidin-1-yl)methyl]-1-{2-[(trifluoromethyl)sulphanyl]ethyl}thieno[2,3-d]pyrimidine-2,4(1H,3H)-dione], the IC50 amounted to 2.6 nM.

With `COC(C)(C)Cn1c(=O)c2c(C)c(CN3CCNC3=O)sc2n(CCCF)c1=O` [Example 237, 1-(3-Fluoropropyl)-3-(2-methoxy-2-methylpropyl)-5-methyl-6-[(2-oxoimidazolidin-1-yl)methyl]thieno[2,3-d]pyrimidine-2,4(1H,3H)-dione], the half-maximal inhibitory concentration (IC50) stood at 17 nM.

With `COCCn1c(=O)n(CC(C)(C)F)c(=O)c2c(C)c(CN3CCNC3=O)sc21` [Example 226, 3-(2-Fluoro-2-methylpropyl)-1-(2-methoxyethyl)-5-methyl-6-[(2-oxoimidazolidin-1-yl)methyl]thieno[2,3-d]pyrimidine-2,4(1H,3H)-dione], the concentration for half-maximal inhibition (IC50) was 36 nM.

As for `CCn1c(=O)c2c(C)c(CN3C(=O)CNC3=O)sc2n(CCOC(F)(F)F)c1=O` [Example 106, 6-[(2,5-Dioxoimidazolidin-1-yl)methyl]-3-ethyl-5-methyl-1-[2-(trifluoromethoxy)ethyl]thieno[2,3-d]pyrimidine-2,4(1H,3H)-dione], the IC50 stood at 9.2 nM.

On to `COC(C)(C)Cn1c(=O)c2c(C)c(CN3CCNC3=S)sc2n(CCC(F)(F)F)c1=O` [Example 170, 3-(2-Methoxy-2-methylpropyl)-5-methyl-6-[(2-thioxoimidazolidin-1-yl)methyl]-1-(3,3,3-trifluoropropyl)thieno[2,3-d]pyrimidine-2,4(1H,3H)-dione], for which the IC50 is 4.4 nM.

Turning to `COCCn1c(=O)n(CC(F)F)c(=O)c2c(C)c(CN3CCNC3=S)sc21` [Example 43], the IC50 came out at 7.7 nM.
